Format in all cases: cell-based
In data set [1] the target is Indoleamine 2,3-dioxygenase 1 (Homo sapiens) (UniProt P14902). The data set can be described thus: Inhibition of human IDO1 expressed in HEK293-EBNA assessed as reduction in kynurenine formation using tryptophan as substrate at 3.12 uM incubated for 24 hrs by HPLC analysis relative to control.
A short description of data set [2]: Cytotoxicity against human HEK293-EBNA cells assessed as cell viability at 3.12 uM by MTS/PMS assay. To be noted: read-out: Activity.
Data set [3] deals with Indoleamine 2,3-dioxygenase 1 (Homo sapiens) (UniProt P14902). Description: Inhibition of human IDO1 expressed in HEK293-EBNA cells assessed as reduction in kynurenine formation using tryptophan as substrate at 25 uM incubated for 24 hrs by HPLC analysis relative to control.
The target is the same in data set [4]. The data set can be described thus: Inhibition of human IDO1 expressed in HEK293-EBNA cells assessed as reduction in kynurenine formation using tryptophan as substrate at 12.5 uM incubated for 24 hrs by HPLC analysis relative to control.
The target in data set [5] is Tryptophan 2,3-dioxygenase (Homo sapiens) (UniProt P48775). The data set can be described thus: Inhibition of human TDO expressed in HEK293-EBNA cells assessed as reduction in kynurenine formation using tryptophan as substrate at 6.25 uM incubated for 24 hrs by HPLC analysis relative to control.
Tryptophan 2,3-dioxygenase (Homo sapiens), sequence (P48775 whole entry, looked up): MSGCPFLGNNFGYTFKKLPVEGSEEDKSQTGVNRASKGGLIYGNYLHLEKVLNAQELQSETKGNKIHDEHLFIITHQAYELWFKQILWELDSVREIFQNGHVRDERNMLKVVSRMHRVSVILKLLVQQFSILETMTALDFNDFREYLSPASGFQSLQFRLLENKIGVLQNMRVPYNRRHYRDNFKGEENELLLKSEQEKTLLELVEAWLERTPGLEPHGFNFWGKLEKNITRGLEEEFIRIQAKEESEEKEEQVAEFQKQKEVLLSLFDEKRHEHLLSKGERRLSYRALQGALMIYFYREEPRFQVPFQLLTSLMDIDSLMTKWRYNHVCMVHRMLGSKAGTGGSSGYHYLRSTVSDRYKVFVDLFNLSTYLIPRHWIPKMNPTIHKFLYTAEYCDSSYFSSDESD
The nature of data set [6]: Cytotoxicity against human HEK293-EBNA cells assessed as cell viability at 12.5 uM by MTS/PMS assay. To be noted: read-out: Activity.
Data set [7] addresses Tryptophan 2,3-dioxygenase (Homo sapiens) (UniProt P48775). Description: Inhibition of human TDO expressed in HEK293-EBNA cells assessed as reduction in kynurenine formation using tryptophan as substrate at 25 uM incubated for 24 hrs by HPLC analysis relative to control.
In data set [8] the target is Indoleamine 2,3-dioxygenase 1 (Homo sapiens) (UniProt P14902). Description: Inhibition of human IDO1 expressed in HEK293-EBNA cells assessed as reduction in kynurenine formation using tryptophan as substrate at 6.25 uM incubated for 24 hrs by HPLC analysis relative to control.
Data set [9] can be described thus: Cytotoxicity against human HEK293-EBNA cells assessed as cell viability at 6.25 uM by MTS/PMS assay. To be noted: read-out: Activity.
A short description of data set [10]: Cytotoxicity against human HEK293-EBNA cells assessed as cell viability at 25 uM by MTS/PMS assay. To be noted: read-out: Activity.
Data set [11] has as its target Tryptophan 2,3-dioxygenase (Homo sapiens) (UniProt P48775). Description: Inhibition of human TDO expressed in HEK293-EBNA cells assessed as reduction in kynurenine formation using tryptophan as substrate at 12.5 uM incubated for 24 hrs by HPLC analysis relative to control.
The target is the same in data set [12]. The data set can be described thus: Inhibition of human TDO expressed in HEK293-EBNA cells assessed as reduction in kynurenine formation using tryptophan as substrate at 3.12 uM incubated for 24 hrs by HPLC analysis relative to control.

Indoleamine 2,3-dioxygenase 1 (Homo sapiens), sequence (P14902 whole entry, looked up): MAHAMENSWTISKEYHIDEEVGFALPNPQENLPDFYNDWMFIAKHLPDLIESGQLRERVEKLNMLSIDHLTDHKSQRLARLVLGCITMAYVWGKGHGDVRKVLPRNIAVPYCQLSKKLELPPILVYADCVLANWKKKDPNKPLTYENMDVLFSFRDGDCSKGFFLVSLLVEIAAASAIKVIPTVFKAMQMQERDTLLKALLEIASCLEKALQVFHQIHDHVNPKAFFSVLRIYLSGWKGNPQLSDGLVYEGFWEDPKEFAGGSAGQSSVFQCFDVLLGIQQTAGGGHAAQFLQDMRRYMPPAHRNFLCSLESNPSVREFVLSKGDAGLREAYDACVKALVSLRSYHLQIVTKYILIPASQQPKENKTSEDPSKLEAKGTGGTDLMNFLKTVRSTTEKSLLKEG

Consider `Cc1ccc(S(=O)(=O)n2cc3c4c2C(=O)c2c(-c5ccccc5)n[nH]c2C4=NCC3)cc1`, for which the inhibition in data set [1] came to 14%; in data set [3], 23%; in data set [4] it was 22%; in data set [5], 13%; in data set [7], 21%; in data set [8] it was 19%. Moreover, the inhibition in data set [11] worked out at 18%; in data set [12] it was 10%. Moreover, the viability at 3.12 µM in data set [2] came to 91%. For the same molecule, the viability at 12.5 µM in [6] was 123%. Moreover, the viability at 6.25 µM in [9] came out at 126%. For the same molecule, the viability at 25 µM in data set [10] came out at 96%.
Turning to `Cc1ccc(S(=O)(=O)n2ccc3c2C(=O)C(NCCc2c[nH]c4ccccc24)=CC3=O)cc1`, the inhibition in data set [1] was 2%; in [3], 11%; in [4] it was 13%; in [5] it was -3%; in [7] it was 0%; in data set [8], 9%. The values for the inhibition in data set [11] and in data set [12] were 0% and -8%, respectively. In addition, the viability at 3.12 µM in data set [2] was determined as 98%. In addition, in data set [6], the viability at 12.5 µM amounted to 99%. The viability at 6.25 µM in data set [9] was found to be 98%. The viability at 25 µM in data set [10] is 84%.
On to `Cc1ccc(S(=O)(=O)n2cc3c4c2C(=O)c2[nH]nc(N5C(=O)C(O)c6ccccc65)c2C4=NCC3)cc1` (configuration not stated), for which the inhibition in [1] stood at 1%; in data set [3] it was 14%; in data set [4] it was 1%; in data set [5], 5%; in data set [7] it was 27%; in [8], 3%. Moreover, the inhibition in [11] is 6%; in data set [12], -7%. Besides, the viability at 3.12 µM in [2] was determined as 104%. The viability at 12.5 µM in data set [6] came to 84%. Also, the viability at 6.25 µM in data set [9] stood at 107%. Also, the viability at 25 µM in [10] was determined as 31%.
For `Cc1ccc(S(=O)(=O)n2ccc3c2C(=O)C=C(NCCc2c[nH]c4ccccc24)C3=O)cc1`, the inhibition in [1] came to 23%; in data set [3], 39%; in [4] it was 38%; in data set [5], 12%; in data set [7], 67%; in data set [8], 28%. Besides, the inhibition in [11] was found to be 31%; in data set [12] it was 5%. For the same molecule, the viability at 3.12 µM in data set [2] was determined as 75%. Besides, the viability at 12.5 µM in data set [6] was 56%. The viability at 6.25 µM in [9] was 69%. Further, the viability at 25 µM in data set [10] came out at 26%.
Turning to `Cc1ccc(S(=O)(=O)n2ccc3c2C(=O)c2c4c(cn2S(=O)(=O)c2ccc(C)cc2)CCN=C34)cc1`, in data set [2], the viability at 3.12 µM was 87%. Further, the viability at 12.5 µM in [6] was found to be 85%. In addition, in data set [9], the viability at 6.25 µM was 88%. For the same molecule, the viability at 25 µM in [10] was 67%.
As for `Cc1ccc(S(=O)(=O)n2ccc3c2C(=O)c2[nH]c(C(=O)c4ccccc4)c(C(=O)c4ccccc4)c2C3=O)cc1`, the inhibition in data set [1] was 52%; in data set [3], 61%; in data set [4], 62%; in data set [5], 27%; in [7] it was 28%; in data set [8], 58%. Moreover, the inhibition is 55% in data set [11] and 15% in data set [12]. The viability at 3.12 µM in data set [2] was determined as 99%. Further, the viability at 12.5 µM in data set [6] came out at 102%. The viability at 6.25 µM in data set [9] was found to be 125%. Further, in [10], the viability at 25 µM was 111%.
For the molecule `O=C1c2c[nH]nc2C2=NCCc3c[nH]c1c32`, the inhibition in [1] is 2%; in data set [3], -1%; in data set [4], 0%; in data set [5], 8%; in data set [7] it was 9%; in [8], 2%. In addition, the inhibition was 8% in data set [11] and 6% in data set [12]. For the same molecule, in [2], the viability at 3.12 µM worked out at 93%. Further, the viability at 12.5 µM in data set [6] worked out at 91%. Also, the viability at 6.25 µM in [9] worked out at 92%. The viability at 25 µM in data set [10] worked out at 90%.
Take `Cc1ccc(S(=O)(=O)n2ccc3c2C(=O)c2[nH]cc4c2C3=NCC4)cc1`: the inhibition was 0% in data set [1]; -3% in data set [3]; -4% in [4]; -7% in data set [5]; 3% in [7]; -3% in data set [8]. The inhibition was -6% in data set [11] and -7% in [12]. The viability at 3.12 µM in [2] is 107%. Besides, the viability at 12.5 µM in data set [6] worked out at 110%. Further, the viability at 6.25 µM in data set [9] worked out at 98%. For the same molecule, the viability at 25 µM in data set [10] was 115%.
Turning to `Cc1ccc(S(=O)(=O)n2cc3c4c2C(=O)c2n[nH]cc2C4=NCC3)cc1`, the inhibition in [1] worked out at 10%; in [3] it was 6%; in [4], 9%; in data set [5], 14%; in data set [7], 7%; in data set [8], 9%. In addition, the inhibition worked out at 13% in data set [11] and 12% in [12]. Moreover, in [2], the viability at 3.12 µM stood at 92%. Besides, in data set [6], the viability at 12.5 µM was 97%. Further, the viability at 6.25 µM in data set [9] amounted to 91%. The viability at 25 µM in [10] amounted to 91%.
Regarding `Cc1ccc(S(=O)(=O)n2cc3c4c2C(=O)c2cn[nH]c2C4=NCC3)cc1`, the inhibition in data set [1] is 10%; in data set [3] it was 11%; in [4], 15%; in data set [5] it was 19%; in [7], 15%; in [8], 12%. Moreover, the inhibition in [11] amounted to 23%; in [12] it was 15%. Further, the viability at 3.12 µM in [2] is 87%. Also, the viability at 12.5 µM in data set [6] worked out at 110%. For the same molecule, the viability at 6.25 µM in data set [9] is 106%. Besides, the viability at 25 µM in [10] was found to be 93%.
Take `Cc1ccc(S(=O)(=O)n2cc3c4c2C(=O)c2[nH]nc(-c5ccccc5)c2C4=NCC3)cc1`: the inhibition in data set [1] is 10%; in [3] it was 18%; in data set [4], 16%; in data set [5], 5%; in [7] it was -10%; in data set [8] it was 12%. The figures for the inhibition in data set [11] and in data set [12] were 2% and 5%, respectively. In addition, the viability at 3.12 µM in data set [2] came out at 91%. Further, in data set [6], the viability at 12.5 µM amounted to 79%. Moreover, the viability at 6.25 µM in data set [9] worked out at 95%. Also, the viability at 25 µM in data set [10] amounted to 78%.
On to `Cc1ccc(S(=O)(=O)n2ccc3c2C(=O)c2[nH]c(C(=O)c4c[nH]c5ccccc45)c(C(=O)c4c[nH]c5ccccc45)c2C3=O)cc1`, for which the inhibition in data set [1] is 16%; in [3] it was 24%; in data set [4] it was 25%; in [5], 1%; in data set [7] it was -9%; in data set [8], 22%. Also, the inhibition in data set [11] is -2%; in data set [12], -1%. Moreover, in [2], the viability at 3.12 µM was 87%. The viability at 12.5 µM in data set [6] was found to be 82%. Moreover, the viability at 6.25 µM in [9] was found to be 81%. In addition, the viability at 25 µM in data set [10] came to 75%.
Turning to `Cc1ccc(S(=O)(=O)n2ccc3c2C(=O)c2c(-c4c[nH]c5ccccc45)cn(C)c2C3=O)cc1`, the inhibition in data set [1] was 12%; in data set [3], 28%; in data set [4] it was 26%; in [5], 2%; in data set [7] it was -8%; in data set [8] it was 20%. The inhibition was -1% in data set [11] and 2% in [12]. Moreover, in [2], the viability at 3.12 µM was found to be 100%. Also, the viability at 12.5 µM in data set [6] amounted to 97%. Besides, in data set [9], the viability at 6.25 µM turned out to be 98%. Further, the viability at 25 µM in [10] worked out at 95%.
As for `Cc1ccc(S(=O)(=O)n2ccc3c2C(=O)c2c(c(-c4c[nH]c5ccccc45)cn2C)C3=O)cc1`, the inhibition in data set [1] was 8%; in [3], 27%; in data set [4], 21%; in [5], 3%; in data set [7] it was -3%; in data set [8] it was 12%. Moreover, the inhibition was determined as 0% in data set [11] and 2% in data set [12]. In data set [2], the viability at 3.12 µM turned out to be 98%. Moreover, the viability at 12.5 µM in data set [6] is 96%. Further, in [9], the viability at 6.25 µM worked out at 96%. Besides, in [10], the viability at 25 µM is 88%.
In the case of `Cc1ccc(S(=O)(=O)n2cc3c4c2C(=O)c2c(cnn2C)C4=NCC3)cc1`, the inhibition in data set [1] is 11%; in [3], 36%; in data set [4] it was 23%; in data set [5] it was 18%; in [7], 35%; in data set [8], 16%. Moreover, the inhibition was determined as 21% in data set [11] and 3% in data set [12]. In [2], the viability at 3.12 µM came to 93%. The viability at 12.5 µM in [6] amounted to 77%. For the same molecule, the viability at 6.25 µM in data set [9] stood at 89%. Moreover, in [10], the viability at 25 µM was determined as 78%.

The term inhibition denotes the change of the read-out against control, counted positive when it falls.
